In patent US5340829A, “Immunoregulatory agents” (priority 1992, dated 1994):
“Also recorded” adds a separate entry of the source.

How the values were obtained:
[1] = tested on: Human macrophages; test: 3H-thymidine incorporation, LPS-stimulated macrophages (Experiment 17); type: cell-based; conditions: concentrations as high as 10^-5 M/L
Protocol: Human macrophages were stimulated using LPS in vitro, and ^3 H-thymidine incorporation was measured.

[2] = tested on: white cells; conditions: in vivo
[3] = tested on: Human monocytes; test: Monocyte adherence in vitro (Experiment 16); type: cell-based; conditions: concentrations as high as 10^-6 M/L
Source text: Human monocytes were isolated and tested for adherence in vitro in the presence and absence of sorbinil.

[4] = tested on: spleen cells from irradiated C57B6 mice with thymocytes from Balb C mice; test: Mixed lymphocyte response (Experiment 19); type: cell-based; conditions: concentrations as high as 10^-5 M/L
[5] = tested on: Normal mouse thymocytes; test: 3H-thymidine incorporation, PHA plus IL-1 stimulated thymocytes (Experiment 12); type: cell-based; conditions: concentrations as high as 10^-6 M/L; PHA in the presence of preformed IL-1
[6] = tested on: Human mononuclear cells; test: PMA-stimulated superoxide production (Experiment 11); type: cell-based; conditions: concentrations as high as 10^-5 M/L; PMA stimulated normal cells
Source text: Human mononuclear cells were studied for superoxide production in culture in the presence and absence of sorbinil. Superoxide production was stimulated in normal cells using the mitogen phorbol myristate acetate (PMA).

[7] = tested on: thymocytes from normal mice; test: Con A stimulated 3H-thymidine incorporation, thymocytes from normal mice in vitro (Experiment 18); type: cell-based; conditions: concentrations as high as 10^-5 M/L
[8] = tested on: anti-PHI.X 174 bacteriophage antibodies; test: Phage inhibition assay of serum antibody after immunization with bacteriophage PHI.X 174 (Experiment 7); type: in vivo, mice; conditions: sorbinil daily for five days
Source text: Antibodies generated against the bacteriophage were quantitated by a phage inhibition assay, which is based on the observation that antibodies specific for the bacteriophage will inhibit the ability of the bacteriophage to lyse bacteria. Ochs, H. D., et al., Disorders of the B-cell system, in Immunologic Disorders in Infants and Children, E. R. Stiehm, et al., eds., W. B. Sanders, Co. Philadelphia, p. 239, 1980. The data was expressed as Kv values derived according to the following formula: Rate of phage inactivation, Kv D/T×1n Po/P, where D=reciprocal of antibody dilution, T=60 minutes, Po=initial number of PFU, and P=number of plaques at 60 minutes.
Beginning with one week after this primary immunization mice were bled weekly, and serum samples from individual mice were tested for the ability to inhibit bacteriophage lysis of bacteria.

[9] = tested on: Mouse P338D cells; test: Release of 3H-arachidonic acid metabolites, A23187-stimulated cells (Experiment 9); type: cell-based; conditions: 10^-6 M/L sorbinil; stimulated by A23187
Source text: The assay protocol was as described generally in Henderson, W. R., and S. J. Klebanoff, J. Biol. Chem. 258: 13522-13527, 1983, which is hereby incorporated by reference.

[10] = tested on: DTH reaction in ears; test: Histologic examination of DNFB-challenged ear tissue (Experiment 5); type: in vivo, mice
Protocol: FIG. 16 depicts the ear of a primed mouse which has not been challenged with DNFB. The epidermis 22 is devoid of mononuclear infiltrate 28, as is the dermal compartment 24. A layer of cartilage 26 is located in the center of the ear. FIG. 17 represents the ear of a buffer-treated primed mouse which had been challenged 24 hours previously with DNFB. Note the pronounced edema in the dermal compartment of the skin 24 as well as the extensive mononuclear cell infiltrate (indicated by arrows 28) in both the dermis and epidermis. […] There were also fewer mononuclear cells 28 in the epidermis 22 as well.

[11] = tested on: primary response to sheep red blood cells (SRBC); test: Direct plaque forming cell (PFC) assay, primary response to sheep red blood cells (Experiment 6); type: in vivo, C57BL/6J mice
Protocol: A control group received only the buffer vehicle (carbonate buffer, 0.01M, pH 9.5). Six hours after the first dose, the mice received 0.1 ml of a 20% SRBC solution intraperitoneally. The mice were sacrificed four days later. The spleens were harvested, and the spleen cells were tested in a modified Cunningham plaque assay. Cunningham, A. V., Nature (London) 207:1106 1965.

[12] = tested on: delayed-type hypersensitivity (DTH); test: DTH ear swelling, comparison of sorbinil, tolrestat, WF-3681 and NSAIDs (Experiment 23, TABLE 5); type: in vivo, mice
Protocol: (§1) Delayed type hypersensitivity, which involves the participation of T lymphocytes and macrophages, can be studied in vivo by exposing (or priming) a mammal to a novel antigen and then reexposing (or challenging) the primed animal to the same antigen four to seven days later. The classic DTH response includes symptoms of inflammatory response, induration and erythema, which peak at 24 to 48 hours after challenging and then decline slowly.
(§2) Eight-week old female C57BL/6J mice (Jackson Labs) were divided into primed and unprimed groups. The five mice in the primed group were primed to 2,4-dinitrofluorobenzene (DNFB; Sigma Chemical Co., Grade 1, approx. 98%, Lot 129C-0065, No. d-6879) by painting their shaved ventral skins with 0.1 ml of 0.5% DNFB in ethanol:acetone (3:1). The five mice in the unprimed group were shaved and topically painted on their ventral skins with the ethanol:acetone (3:1) vehicle alone. The mice in both groups were challenged with DNFB four days later. A suitable patch of skin, the ear, was chosen for challenging. One ear was designated for challenging and the other to serve as a control. The thickness of each ear across the pinna was measured using micrometer calipers. The first measurements were taken four days after priming and are plotted as day 0 in FIG. 13. Next, each mouse was subjected to the following challenge regimen: one ear was challenged with one drop of 0.35% DNFB in olive oil, and the other (unchallenged control) ear was exposed to olive oil alone. The ear thicknesses (ET) of the challenged ear and the unchallenged ear were measured daily, and the swelling responses are plotted in FIG. 13 as: [formula]
(§3) Three groups of eight-week old female C57BL/6J mice were primed to DNFB as previously described. […] Six hours later the first sets of ear measurements were taken, and one ear of each mouse was challenged.
The Table has 4 columns, listing (left to right) each drug tested in column 1, drug concentrations in column 2, relative swelling in column 3, and effectiveness in column 4.

[13] = tested on: delayed type hypersensitivity (DTH) response to DNFB; test: Delayed-type hypersensitivity (DTH) ear swelling, DNFB-primed mice (Experiments 2-3); type: in vivo, C57BL/6J mice
Protocol: as §1, §2, §3
The data in FIG. 15 is derived from three experiments using C57BL/6J mice. The measurements were taken at the time of maximal swelling, i.e., […] after challenge, and each point represents at least 9 mice.

[14] = 11 mg/kg orally daily, four days after SRBC

O=C1NC(=O)[C@@]2(CCOc3ccc(F)cc32)N1 [Sorbinil, 4(S)-2,3-dihydro-6-fluorospiro-(4H-1-benzopyran-4,4'-imidazolidine)-2',5'-dione]
Incorporation of 3H-thymidine [1]: no effect | White cell population (differential blood count) [2]: did not affect the population of white cells | Adherence of monocytes [3]: no effect | Mixed lymphocyte response [4]: no effect | Incorporation of 3H-thymidine [5]: no effect | Production of superoxide [6]: no effect | 3H-thymidine incorporation stimulated by Con A [7]: no effect | Kv, rate of phage inactivation (serum titer of anti-PHI.X 174 antibodies) ([8]; one week after priming): 5.0±2.4 | Kv, rate of phage inactivation (serum titer of anti-PHI.X 174 antibodies) ([8]; two weeks after primary immunization): 18.4±11.4 | Release of arachidonic acid metabolites [9]: no effect | Edema of dermal compartment ([10]; primed mouse challenged 24 hours previously with DNFB, vs buffer-treated): much less edematous | Mononuclear cell infiltration in challenged ears ([10]; sorbinil-treated vs challenged control mice): infiltration was reduced | Direct plaques [11, 14]: 372±62 plaques per 2×10^5 cells | Increase in spleen cellularity compared to buffer-treated control group [11, 14]: 46% | Increase in the number of direct plaques (IgM antibody secreting cells) compared to buffer control [11, 14]: 94% | PFC on a per spleen basis [11, 14]: 393,000±12,617 PFC/spleen | Spleen cellularity [11, 14]: 2.12±0.26×10^8 cells/spleen | Qualitative appearance of plaques ([11]; spleen cells from sorbinil-treated mice vs buffer control): much smaller, more irregularly shaped, and less distinct | effectiveness (1 - R) (100%) ([12]; 6 μM, single dose after challenge): 39% | effectiveness (1 - R) (100%) ([12]; 6 μM, single dose before challenge): 32% | effectiveness (1 - R) (100%) ([12]; concentration 6 μM): 34% | effectiveness (1 - R) (100%) ([12]; concentration 6 μM, listed as sorbinil): about 30% | effectiveness (1 - R) (100%) ([12]; concentration 10 μM): 70% | Effect on DTH as measured by ear swelling (in words) ([12]; mouse, in vivo): strong and substantially identical inhibitory effect; also recorded: effective, as a single dose, when administered either before or after the antigenic challenge | ED100 ([13]; Mus musculus, extrapolation from least squares fit line, FIG. 15, three experiments, time of maximal swelling, i.e., 2 hours after challenge, read-out: Concentration at which maximum inhibition of DTH response (no swelling) would occur): 13.5 mg/kg | Ear swelling (in words) ([13]; sorbinil 10 mg/kg orally): almost complete inhibition of ear swelling | Ear swelling / DTH response (in words) ([13]; sorbinil orally 10, 1.0 or 0.1 mg/kg daily, DNFB-primed and challenged C57BL/6J mice): Swelling was inhibited; also recorded: dose dependent inhibition of ear swelling; also recorded: inhibits the inflammatory response; also recorded: dose dependent inhibition of the delayed-type hypersensitivity response
